The subject of the assay is CEM cells HIV-1 protection, formazan growth assay. The assay can be described thus: NCI AIDS Antiviral Assay. The following applies: for IC50: measured here: growth of uninfected CEM cells. The procedure, abridged: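 Human CEM cells, uninfected and HIV-1-infected, received five drug concentrations, and growth was read by soluble formazan assay. Compounds giving at least 50% protection were retested; reproducible 100% protection defined confirmed active.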

The values that follow come from PubChem BioAssay AID179 (DTP/NCI, 2004).

Calls of active or inactive are those of the source.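 The calls were made as follows: active = compounds giving half or more protection of infected cells from virus-caused growth loss, again on retest; inactive = the rest.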

What is called EC50 is the concentration that produces a half-maximal response. The term IC50 denotes the concentration needed to halve the response being measured. Low values mean greater potency in that assay, high ones weaker potency in that assay. On to `CC1=C(C(=O)Nc2cccc3c2C(=O)NC3=O)CC(C(=O)Nc2cccc3c2C(=O)NC3=O)=C(C)N1`, for which the EC50 was more than 200 µM and the IC50 is more than 200 µM.
Regarding `CN(C)C1C(=O)C(C(=O)NCNC(CO)(CO)CO)=C(O)C2(O)C(=O)C3=C(O)c4c(O)cccc4C(C)(O)C3CC12` (centres undefined), the EC50 was more than 200 µM and the IC50 came out at 132 µM.
The corresponding values for `C[C@]12CCC(=O)O[C@H]1CCCCO2` are more than 200 µM and more than 200 µM.
Regarding `CN1CN(c2ccccc2)C2(CCN(CC(C)(c3ccc(F)cc3)C3OCCCO3)CC2)C1=O` (centres undefined), the EC50 is more than 200 µM and the IC50 stood at 107 µM.
The corresponding values for `Clc1ccc(Cl)c(N=Nc2cc3c4c(c2)CCN4CCC3)c1` are more than 100 µM and more than 100 µM.
In the case of `O=c1cc(P(=O)(O)O)[nH]c(=O)[nH]1`, the outcome was inactive.
For `Cc1ccc(C(=C2Sc3ccccc3S2)C(=C2Sc3ccccc3S2)c2ccc(C)s2)s1`, the EC50 is more than 200 µM and the IC50 was more than 200 µM.
With `CN(C)C(F)=PC(F)(F)F` (centres undefined), the EC50 was more than 251 µM and the IC50 was more than 251 µM.
Take `C=CCCCCCCCCC(=O)NC(C)COC` (centres undefined): the EC50 was more than 200 µM and the IC50 is 107 µM.
In the same order, the values of `CN1C(=O)N(C)C2SC(=NCc3ccccc3)NN2C1=O` (centres undefined) are more than 85.1 µM and 81.3 µM.
In the case of `CCCCCC(/C=C/[C@@H]1[C@@H](C(O)CCCCCC(=O)OC)C(=O)C[C@H]1O[Si](C)(C)C(C)(C)C)OCOCCOC` (some centres undefined), the result was inactive.
Take `O=CCC(O)C(O)C(O)CO` (centres undefined): the EC50 was more than 759 µM and the IC50 was more than 759 µM.
For `CCCCCCCCCCCCCCCCSS(=O)(=O)c1ccc(C)cc1`, the EC50 was more than 31.6 µM and the IC50 is more than 31.6 µM.
Regarding `Cc1ccc(S(=O)(=O)OCC23CCC(C2)C2CC23)cc1` (centres undefined), the EC50 was more than 100 µM and the IC50 is more than 100 µM.
On to `CN1CCC23c4ccccc4NC1C21CCN(C)C3Nc2ccccc21`, for which the EC50 is more than 724 µM and the half-inhibitory concentration (IC50) was determined as 617 µM.
The corresponding values for `Cn1c2c(c(=O)[nH]c1=O)OCN(Cc1ccccc1)C2` are more than 251 µM and 29.5 µM.
Take `COc1ccc2c(C3(O)CCNCC3)c[nH]c2c1`: the result was inactive.
Regarding `CN(C)CCNC(=O)Cn1ccc(=O)c2ccc([N+](=O)[O-])cc21`, the EC50 is more than 200 µM and the 50% inhibitory concentration (IC50) was more than 200 µM.
With `CC1=CC(=O)CC2(C)CC[C@@H]3C[C@]12OC3(C)C` (some centres undefined), the outcome was inactive.
For `COc1ccc2c(=O)c(O)c(-c3ccccc3)oc2c1`, the EC50 was more than 66.1 µM and the IC50 is 12.3 µM.
The corresponding values for `COc1ccccc1C1CC(=O)CC(c2ccccc2OC)C12C(=O)NC(=S)NC2=O` (centres undefined) are more than 200 µM and 46.8 µM.
In the same order, the values of `CCOC(=O)N/N=C(\CC)NO` are more than 200 µM and more than 200 µM.
In the same order, the values of `Cc1cc(C)nc(NS(=O)(=O)c2ccc(NNC(=O)c3cccc4c(NNc5ccc(S(=O)(=O)Nc6nc(C)cc(C)n6)cc5)c5ccccc5nc34)cc2)n1` are more than 200 µM and 21.9 µM.
For `CCOC(=O)C(NCc1cccc(C(F)(F)F)c1)(NC(=O)c1ccccc1)C(F)(F)F` (centres undefined), the EC50 was more than 200 µM and the IC50 was found to be 18.6 µM.
As for `CCOC(=O)/C(N=O)=C(/O)CC(C)C`, the EC50 is more than 200 µM and the IC50 is more than 200 µM.
In the case of `Cc1ccc(S(=O)(=O)CNC(=S)CCCC(=S)NCS(=O)(=O)c2ccc(C)cc2)cc1`, the result was inactive.
As for `Cc1ccc(NC(=O)CC(=O)n2nc(-c3ccccc3)c(N=Nc3ccccc3C(=O)O)c2-c2ccccc2)cc1`, the EC50 was more than 25.1 µM and the concentration for half-maximal inhibition (IC50) is more than 25.1 µM.
Consider `COC(=O)C1CCC(=O)N1CN(C(C)=O)c1ccccc1` (centres undefined), for which the EC50 is more than 200 µM and the IC50 was more than 200 µM.
With `COCCOCCOCCOCCOCCOCCOCCOCCOCCOCCOCCOCCOCCOCCOCCOCCOCC(=O)N(CCn1ccc(NC(c2ccccc2)(c2ccccc2)c2ccccc2)nc1=O)CCn1ccc(NC(c2ccccc2)(c2ccccc2)c2ccccc2)nc1=O`, the EC50 is 20 µM and the IC50 was 22.9 µM.
The corresponding values for `N#CCCN(C(=O)Nc1cccc(C(F)(F)F)c1)C1CCCCC1` are more than 200 µM and more than 200 µM.
For the molecule `CC(=O)Nc1nc2c(=O)c3ccccc3sc2s1`, the outcome was inactive.
As for `Cc1n[nH]c(=O)n1-c1cccnc1`, the EC50 was more than 200 µM and the IC50 is more than 200 µM.
As for `COc1ccc2nc3cccc([N+](=O)[O-])c3c(NCCCO)c2c1`, the EC50 is more than 2 µM and the IC50 worked out at 0.017 µM.
Regarding `COc1ccc(CN2CCCN(Cc3ccc(OC)cc3OC)C2c2cc(Cl)cc(Cl)c2O)c(OC)c1`, the EC50 is more than 200 µM and the half-maximal inhibitory concentration (IC50) turned out to be 34.7 µM.
In the case of `O=C1C2c3[nH]c4ccccc4c3C3CCCC3C2C(=O)N1c1ccccc1` (centres undefined), the result was inactive.
As to `NC(CSSCC(N)=NCCCCCSC12CC3CC(CC(C3)C1)C2)=NCCCCCSC12CC3CC(CC(C3)C1)C2`, the EC50 was more than 200 µM and the IC50 came to 6.17 µM.
The corresponding values for `COC(=O)C1CCC(=O)N1C(c1ccc2c(c1)OCO2)c1cc(OC)c(OC)c(OC)c1` (centres undefined) are more than 200 µM and more than 200 µM.
The corresponding values for `COc1ccc(C2c3cc4c(cc3OC(NNc3ccccc3)C2C)OCO4)cc1` (centres undefined) are more than 200 µM and 11.7 µM.
For `Cc1cc(=O)[nH]c(CO)n1`, the EC50 is more than 200 µM and the IC50 was more than 200 µM.
Regarding `COC(=O)[C@@H]1[C@@H]2NC(=S)N[C@@]1(C)Oc1ccccc12`, the outcome was inactive.
`COc1ccc(SCc2cc(OC)c(OC)c(OC)c2)cc1OC`: the EC50 is more than 200 µM and the IC50 was 45.7 µM.
As for `O=C1C(=O)N(c2cccc(C(F)(F)F)c2)C(=O)C(=O)C1c1nc2ccccc2s1`, the EC50 is more than 44.7 µM and the IC50 is more than 44.7 µM.
With `C/C(C=C(C#N)C#N)=C\c1ccccc1`, the EC50 was more than 97.7 µM and the IC50 stood at 39.8 µM.
In the same order, the values of `C=C1C(=O)OC2C3C(=C)[C@@H](OC(C)=O)CC3C(C)=CC(OC(=O)C(C)(O)C(C)OC(C)=O)[C@@H]12` (some centres undefined) are more than 200 µM and more than 200 µM.
In the same order, the values of `Nc1ncnc2c1ncn2COC/C=C/I` are more than 204 µM and 155 µM.
Turning to `CC(C)c1ccc(O)c(=O)cc1`, the result was inactive.
With `Nc1nnc(CCC(=O)Nc2cc(Cl)ccc2Cl)n1N`, the EC50 was more than 8.71 µM and the IC50 is more than 8.71 µM.
Consider `c1ccc(SSc2ccc3ccccc3c2)cc1`, for which the EC50 was more than 200 µM and the IC50 was found to be 9.33 µM.
As to `CCN(CC)C1CC(O[C@H]2C[C@](O)(C(=O)CO)Cc3c(O)c4c(c(O)c32)C(=O)c2c(OC)cccc2C4=O)OC(C)C1O` (some centres undefined), the outcome was inactive.
For `O=c1[nH]c2ccccc2nc1/C=C/n1c(=S)[nH]c2ccccc21`, the EC50 is more than 200 µM and the IC50 is more than 200 µM.
For `N#CCCN(CCN(CCC#N)C(=O)Nc1ccccc1)C(=O)Nc1ccccc1`, the EC50 was more than 200 µM and the IC50 is more than 200 µM.
Turning to `CC(C)(c1ccccc1)c1ccc(Oc2ccc(C#N)c(C#N)c2)cc1`, the EC50 is more than 29.5 µM and the IC50 was 28.8 µM.
For `Nc1ccc2c(c1)C(=O)N1CCC[C@H]1C(=O)N2`, the EC50 is more than 200 µM and the IC50 is more than 200 µM.
Take `CCc1cc(-c2nsc(=O)o2)c(S(=O)(=O)CC)s1`: the EC50 was more than 200 µM and the IC50 was 93.3 µM.
The corresponding values for `CCCCOP(C)(=O)C(NC(=O)OCC)(C(F)(F)F)C(F)(F)F` (centres undefined) are more than 200 µM and more than 200 µM.
The corresponding values for `COc1cccc(C2Nc3ccccc3C(=O)N2N2CCOCC2)c1` (centres undefined) are more than 200 µM and more than 200 µM.
As for `O=C(Cc1ccccc1)NN1C(=O)C(Cl)C1c1ccccc1O` (centres undefined), the EC50 is more than 77.6 µM and the concentration for half-maximal inhibition (IC50) turned out to be 24.5 µM.
In the same order, the values of `C[N+](C)(C)CCOP(=O)([O-])OCCNC(=O)c1ccc2ccccc2c1` are more than 200 µM and more than 200 µM.
In the same order, the values of `C=CCCCCOCOCCOC` are more than 138 µM and more than 138 µM.
In the same order, the values of `Cc1oc(C)c2c1C(=O)c1ccccc1C2=O` are more than 200 µM and 123 µM.
In the case of `c1cc2c(s1)-c1sccc1C21OCCO1`, the EC50 was more than 200 µM and the IC50 stood at 162 µM.
In the same order, the values of `c1ccc(-c2nnc(CCCCCCCCc3nnc(-c4ccccc4)o3)o2)cc1` are more than 200 µM and 158 µM.
`CCCC(C)C[C@@H](C)CC(C)/C=C(\C)c1oc(=O)c(C)c(O)c1C` (some centres undefined) (tested in a mixture with another compound): the result was inactive.
With `Cc1ccc(C)c(NC(=O)c2cc(-c3ccc([N+](=O)[O-])cc3)nc(N)n2)c1`, the EC50 was more than 70.8 µM and the IC50 was more than 70.8 µM.
With `CCC1(O)CC(CCN(Cc2ccccc2)C(=O)OCc2ccccc2)C(OCc2ccccc2)C1O` (centres undefined), the EC50 was more than 200 µM and the IC50 was determined as 9.12 µM.
As for `NCCN.NCCN.O=C([O-])C(=O)[O-].[Cl-].[Co+3]`, the outcome was inactive.
Still for that read-out and setting: the value for `O=S1(=O)NNC(=NCc2ccc(F)cc2)c2ccccc21` was “inactive”.
Still for that read-out and setting: the value for `Cc1ccc(C)c(NC(=O)C(=O)CC(=O)C2CCOC2=O)c1` (centres undefined) was “inactive”.
As to `COc1ccc(NC(C)=O)c(Cl)c1`, the EC50 was more than 1260 µM and the IC50 is more than 1260 µM.
`Fc1cccc(C2SCc3nc4ccccc4n32)c1` (centres undefined): the half-maximal effective concentration (EC50) is more than 209 µM and the IC50 came out at 20.9 µM.
In the same order, the values of `O=S(=O)([N-]c1nc2ccccc2nc1-[n+]1ccccc1)c1ccccc1` are more than 100 µM and more than 100 µM.
Take `NC(Cc1ccc(O)cn1)C(=O)NC(C(=O)O)c1ccccc1` (centres undefined): the EC50 is more than 200 µM and the IC50 was more than 200 µM.
As for `Cc1nn(C(=O)c2ccc(Cl)cc2)c2c1C(/C=C/c1ccccc1)SC(N)=N2` (centres undefined), the EC50 was 60.3 µM and the IC50 was 158 µM.
On to `Cc1cn(CC2=NCCN2)c(=O)[nH]c1=O`, for which the EC50 is more than 200 µM and the IC50 was more than 200 µM.
